Results: US12606595B2, “Regentide-041 and composition comprising Regentide-041 for improving skin condition” (NINEBIOPHARM CO., LTD., priority 2020, dated 2026)
Where a SMILES comes first, the peptide text is derived from it.

Molecular target: T1, Neutrophil Elastase (Homo sapiens, UniProt P08246)
T1 construct: purchased Enzo Life Science BML-AK497-001
T1 sequence (P08246 30-267): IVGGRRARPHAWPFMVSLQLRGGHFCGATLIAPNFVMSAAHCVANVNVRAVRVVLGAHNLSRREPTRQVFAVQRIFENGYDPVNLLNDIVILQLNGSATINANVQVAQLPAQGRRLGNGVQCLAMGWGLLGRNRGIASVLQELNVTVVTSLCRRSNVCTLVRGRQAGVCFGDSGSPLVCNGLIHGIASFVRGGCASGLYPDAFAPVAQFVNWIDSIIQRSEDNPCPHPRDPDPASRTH
Test: Elastase activity inhibitory ability, Neutrophil Elastase colorimetric method
Type: biochemical
Protocol: In order to confirm the elastase activity inhibitory ability of Regentide-041, it was measured using the Neutrophil Elastase colorimetric method (BML-AK497-001, Enzo Life Science, Pennsylvania, USA). Specifically, after an assay buffer and D.W. were diluted at 1:1, an elastase reagent and a substrate reagent were diluted to have final concentrations of 2.2 μU/μl and 100 μM, respectively. In addition, Regentide-041 was diluted to have final concentrations of 0.1, 1, 10, 50, 100, and 150 μM, respectively. A working solution was prepared by mixing the assay buffer, elastase reagent, and Regentide-041 diluent. […] of the working solution was put in each well of a 96-well plate and reacted at 37° C. for 5 minutes. Next, […] of the substrate reagent was put, and absorbance was measured for 15 minutes at absorbance 405 nm with a Microplate reader (Epoch 2 Microplate spectrophotometer. Biotek, Winooski, VT, USA).

SMILES: CC[C@H](C)[C@H](NC(=O)CNC(=O)CNC(=O)[C@H](CCCNC(=N)N)NC(=O)[C@@H]1CCCN1C(=O)[C@@H](NC(=O)[C@@H](N)CS)[C@@H](C)CC)C(=O)N[C@@H](CS)C(=O)N[C@@H](CC(C)C)C(=O)N[C@H](C(=O)N[C@@H](C)C(=O)N[C@@H](CC(C)C)C(N)=O)C(C)C [Regentide-041, CIPRGGICLVAL-NH2] (H-CIPRGGICLVAL-NH2)
- inhibition at 150 µM: 52.7 ± 1.2%
